Assay results taken from US11179382B2, “Methods of reversing normal aging process and extending lifespan” (MyMD Pharmaceuticals (Florida), Inc., priority 2015, dated 2021).
Several values for one entry are separate records, joined by “and”; a condition that tells them apart may be missing. Equal values may be shown once. Entries after “also recorded” stand apart in the source; their conditions may differ.

Experiments:
[1] = test system: stage-four cancer patient diagnosed with autoimmune amyloidosis; experiment: Treatment of a stage-four cancer patient with autoimmune amyloidosis; immunoglobulin light chain Kappa/Lambda detection in blood; format: in vivo, human; conditions: for Lambda Light Chains / Free Light Chains Ratio / Kappa Light Chains: 250 mg daily; for Lambda Light Chains: initial 6.5, standard range 5.7-26.3; for Free Light Chains Ratio: initial 75.38, standard range 0.26-1.65; for Kappa Light Chains: initial 490.0, standard range 3.3-19.4
Method: This example illustrates treating a stage-four cancer patient who had been diagnosed with autoimmune amyloidosis. At the time treatment began, the individual was bedridden under hospice care and told they had only a few days to live. The individual was administered a daily dose of 250 mg isomyosmine.
The patient's blood was tested using conventional immunoglobulin light chain Kappa/Lambda detection. The immunoglobulin kappa and lambda (Ig κ/λ) in situ hybridization (ISH) system is designed for the detection of human kappa and lambda immunoglobulin light chain messenger RNA (mRNA) in tissue sections and blood and bone marrow smears. The system uses biotin-labeled oligonucleotide probes. The probe-mRNA duplex is indirectly detected using an enzyme-conjugated antibody targeting the biotin conjugate. For color development, a chromogenic substrate is added. Enzymatic reaction of the chromogenic substrate leads to the formation of a color precipitate that is visualized by light microscopy.

[2] = test system: individuals (peripheral capillary oxygen saturation); experiment: Blood oxygen saturation (SpO2) by pulse oximetry in individuals; format: in vivo, human; conditions: one hour after a single dose (50-100 mg), seven individuals
Text: This example illustrates the effect of isomyosmine on normal blood oxygen saturation levels (SpO2). SpO2 refers to peripheral capillary oxygen saturation, an estimate of the amount of oxygen in the blood. More specifically, it is the percentage of oxygenated hemoglobin (hemoglobin containing oxygen) compared to the total amount of hemoglobin in the blood (oxygenated and non-oxygenated hemoglobin). SpO2 can be measured by pulse oximetry, an indirect, non-invasive method. It works by emitting and then absorbing a light wave passing through blood vessels (or capillaries) in the fingertip. A variation of the light wave passing through the finger will give the value of the SpO2 measurement because the degree of oxygen saturation causes variations in the blood's color.

[3] = test system: herpes labialis (herpes simplex); experiment: Treatment of herpes labialis (cold sores) in an individual; format: in vivo, human; conditions: 100 mg dose upon first feeling the onset of a cold sore
Method: This example illustrates administering isomyosmine to treat herpes labialis (cold sores), a type of herpes simplex occurring on the lip. An individual who experiences periodic outbreaks of herpes labialis was administered a 100 mg dose of isomyosmine upon first feeling the onset of a cold sore.

[4] = test system: individual being treated for type II diabetes; experiment: Individual with type II diabetes treated with isomyosmine; format: in vivo, human; conditions: one individual, 100 mg per day, following three months of treatment; taken off existing diabetes medication
Method: (§1) This example illustrates administering isomyosmine to treat high blood pressure. Twelve individuals experiencing high blood pressure were each administered isomyosmine at dose of 100 mg per day. […] The blood pressure of one of the individuals was measured to be 145/86 mmHg without isomyosmine in the bloodstream and was measured to be 109/59 mmHg while being treated with isomyosmine. Another of the individuals was being treated for type II diabetes at the beginning of the treatment.

[5] = test system: individuals experiencing high blood pressure; experiment: Treatment of individuals experiencing high blood pressure; format: in vivo, human; conditions: 100 mg per day
Method: as §1

[6] = biological target: T1, MAO-A (Homo sapiens, UniProt P21397); experiment: MAO-Glo luminescent assay, MAO-A inhibition; format: biochemical; conditions: compared among isomyosmine, myosmine, anatabine, anabasine, nornicotine; clorgyline positive control
T1 construct: purchased
T1 sequence (P21397 1-527): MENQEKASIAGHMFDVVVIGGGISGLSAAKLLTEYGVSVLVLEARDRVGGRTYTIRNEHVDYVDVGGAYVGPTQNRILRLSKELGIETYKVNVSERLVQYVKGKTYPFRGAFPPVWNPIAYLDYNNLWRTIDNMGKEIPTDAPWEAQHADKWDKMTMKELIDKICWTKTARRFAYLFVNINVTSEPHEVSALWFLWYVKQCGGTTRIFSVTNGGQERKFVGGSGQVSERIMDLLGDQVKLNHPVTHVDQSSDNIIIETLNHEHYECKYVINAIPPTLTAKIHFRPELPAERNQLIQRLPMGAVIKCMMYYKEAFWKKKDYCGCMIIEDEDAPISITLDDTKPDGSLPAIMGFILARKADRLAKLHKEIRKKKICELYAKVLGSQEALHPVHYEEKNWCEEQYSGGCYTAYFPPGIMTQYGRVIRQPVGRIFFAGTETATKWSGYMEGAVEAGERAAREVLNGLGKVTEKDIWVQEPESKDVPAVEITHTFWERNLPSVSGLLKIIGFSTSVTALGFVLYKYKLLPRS
Text: (§2) This example describes experiments for determining monoamine oxidase (MAO) inhibition for isomyosmine and other alkaloids. MAOs are enzymes located on the outer membrane of mitochondria and are involved in the catabolism of monoamine neurotransmitters. There are two well-characterized isoenzymes: MAO-A, which predominantly catabolizes serotonin and norepinephrine, and MAO-B, which preferentially catabolizes benzylamine and phenylethylamine. Dopamine and tyramine are metabolized by both isoforms.
(§3) To detect the activity of MAO, a luminescent method (MAO-Glo Assay kit, from Promega, Cat #V1401) was used. In this method, a MAO substrate (a derivative of beetle luciferin provided in the kit) is mixed with the compound to be tested (in this case, myosmine and control compounds). Then, the MAO enzymes (either A or B, purchased separately) are added to the mixture and incubated with the reaction for 1 hour at room temperature. The MAO enzymes, if not inhibited by the test compound, will convert the substrate into methyl ester luciferin. Finally, a luciferin detection reagent (provided by the kit) is added (20 minutes at room temperature) to stop the MAO reaction and convert methyl ester luciferin into D-luciferin. […] The luminescent signal is measured and recorded using a luminometer. […]

[7] = biological target: T2, MAO-B (Homo sapiens, UniProt P27338); experiment: MAO-Glo luminescent assay, MAO-B inhibition; format: biochemical; conditions: compared among isomyosmine, myosmine, anatabine, anabasine, nornicotine
T2 construct: purchased
T2 sequence (P27338 1-520): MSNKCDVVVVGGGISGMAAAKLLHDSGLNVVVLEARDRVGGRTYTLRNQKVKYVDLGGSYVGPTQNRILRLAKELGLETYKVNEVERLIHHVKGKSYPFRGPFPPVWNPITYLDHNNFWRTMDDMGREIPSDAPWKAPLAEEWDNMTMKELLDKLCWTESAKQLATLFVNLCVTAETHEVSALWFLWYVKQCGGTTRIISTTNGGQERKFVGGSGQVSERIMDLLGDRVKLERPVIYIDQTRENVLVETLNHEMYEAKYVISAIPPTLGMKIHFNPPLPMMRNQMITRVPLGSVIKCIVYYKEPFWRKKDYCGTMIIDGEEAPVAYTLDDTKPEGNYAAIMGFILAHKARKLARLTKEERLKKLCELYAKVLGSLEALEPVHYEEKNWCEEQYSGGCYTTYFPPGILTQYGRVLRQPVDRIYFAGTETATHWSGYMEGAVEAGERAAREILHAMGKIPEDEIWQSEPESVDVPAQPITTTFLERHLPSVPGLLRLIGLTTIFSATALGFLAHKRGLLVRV
Text: as §2, §3

[8] = test system: surgical incisions; experiment: Topical administration for wound healing; format: in vivo, human; conditions: e.g., avoid scarring around surgical incisions
Text: In another aspect, a method of treating a wound comprises administering to an individual in need thereof a pharmaceutical composition containing a therapeutically effective amount of isomyosmine or a pharmaceutically acceptable salt thereof.

## C1=NC(c2cccnc2)CC1 (stereo not shown) [isomyosmine, 3-(3,4-dihydro-2H-pyrrol-2-yl)-pyridine]
[1]; 3 weeks
  Lambda Light Chains: 10.9 mg/L
  Free Light Chains Ratio: 55.23
  Kappa Light Chains: 602.0 mg/L
[1]; 9 weeks
  Lambda Light Chains: 9.2 mg/L
  Free Light Chains Ratio: 42.83
  Kappa Light Chains: 394.0 mg/L
[1]; 12 weeks
  Lambda Light Chains: 7.1 mg/L
  Free Light Chains Ratio: 29.58
  Kappa Light Chains: 210.0 mg/L
[1]; 14 weeks
  Lambda Light Chains: 3.0 mg/L
  Free Light Chains Ratio: 64.33
  Kappa Light Chains: 193.0 mg/L
[1]; 17 weeks
  Lambda Light Chains: 3.6 mg/L
  Free Light Chains Ratio: 28.89
  Kappa Light Chains: 104.0 mg/L
[1]; daily dose of 250 mg, within two weeks of treatment, able to get out of bed and walk around
  individual's symptoms: remarkably improved
[2]
  blood oxygenation (result in words): significant increase in blood oxygenation
[2]; base SpO2 94.0-97.0
  Dosed SpO2: 98.0 (5×) and 99.0 (2×)
[3]
  outbreak of cold sore: effective to prevent the outbreak of the cold sore
[4]
  symptoms of diabetes: no symptoms of diabetes
[5]; one individual, 145/86 mmHg without isomyosmine in the bloodstream
  blood pressure while being treated: 109/59
[5]; twelve individuals
  change in blood pressure during treatment: reduction in blood pressure
[6]
  inhibiting the enzymatic activity of MAO-A (result in words, FIG. 3): most potent of the five; also recorded: potent inhibitor
[7]
  inhibiting the activity of MAO-B (result in words, FIG. 4): most potent among the five alkaloids tested; also recorded: potent inhibitor
[8]
  wound healing (result in words): dramatically improve healing
